In PubChem BioAssay (NCI):
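48-hour exposure; five concentrations; linearly interpolated endpoints. TGI is the concentration that stops growth completely.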

How the values were obtained:
Assay in all cases: NCI tumour cell line growth inhibition, 48 h
XF 498 CNS = test system: XF 498 CNS
RXF-631 renal = test system: RXF-631 renal
DMS 114 small cell lung = test system: DMS 114 small cell lung
786-0 renal = test system: 786-0 renal
SN12K1 renal = test system: SN12K1 renal
P388/ADR leukemia = test system: P388/ADR leukemia
DLD-1 colon = test system: DLD-1 colon
KM20L2 colon = test system: KM20L2 colon
P388 leukemia = test system: P388 leukemia

Measured: TGI

CCN(CC)CCSc1nc2c([N+](=O)[O-])cccc2[nH]1
> 100 µM: XF 498 CNS | RXF-631 renal | DMS 114 small cell lung

CC(=O)Nc1ccc2c(c1)C(=Nc1ccc(C(=O)O)cc1)c1ccccc1-2
> 100 µM: 786-0 renal

Nc1cccc2cc(S(=O)(=O)Nc3ccc(C(=O)O)cc3)ccc12
> 100 µM: 786-0 renal

CSc1nc(NC2OC(CO)C(O)C(O)C2O)c(N)c(=O)n1C (stereo not given)
> 100 µM: XF 498 CNS | SN12K1 renal | P388/ADR leukemia | DLD-1 colon | DMS 114 small cell lung | KM20L2 colon | P388 leukemia

NC(=O)OCc1c(O)c2c(c(O)c1COC(N)=O)C(=O)C=CC2=O
> 100 µM: DLD-1 colon | DMS 114 small cell lung | KM20L2 colon
